# Experimental data as given in patent US20250381179A1, “CHROMAN-BASED COMPOUNDS FOR TREATING CANCER” (priority 2024, published 2025).
# Read-outs that look alike come from different tables or passages of the source.
# What was measured:
# ERa = target: T1, ERa (Homo sapiens, UniProt P03372); test: Binding to human ERa; conditions: for IC50: read-out: half-maximal inhibitory concentration (IC50) (converted)
# T1 sequence (P03372 1-595): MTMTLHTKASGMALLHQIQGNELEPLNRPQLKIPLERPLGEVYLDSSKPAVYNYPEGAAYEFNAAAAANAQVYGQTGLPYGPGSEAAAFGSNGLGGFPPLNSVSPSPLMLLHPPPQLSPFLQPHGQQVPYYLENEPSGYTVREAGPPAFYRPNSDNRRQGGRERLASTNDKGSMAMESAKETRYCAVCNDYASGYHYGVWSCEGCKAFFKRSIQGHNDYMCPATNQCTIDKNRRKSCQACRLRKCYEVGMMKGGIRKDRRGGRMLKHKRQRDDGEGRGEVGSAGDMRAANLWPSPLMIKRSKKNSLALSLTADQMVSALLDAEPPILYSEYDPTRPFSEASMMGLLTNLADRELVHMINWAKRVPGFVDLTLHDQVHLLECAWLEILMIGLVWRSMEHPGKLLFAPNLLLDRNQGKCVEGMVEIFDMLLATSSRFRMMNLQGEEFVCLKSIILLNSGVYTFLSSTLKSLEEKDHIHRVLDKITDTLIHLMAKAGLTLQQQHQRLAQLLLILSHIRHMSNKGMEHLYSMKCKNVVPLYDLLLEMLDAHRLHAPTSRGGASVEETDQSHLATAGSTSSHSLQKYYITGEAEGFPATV
# MCF7 xenograft tumors = MCF7 xenograft tumors in mice, once daily oral administration; assay type: in vivo; conditions: once daily oral 30 mg/kg/day (lowest dose level evaluated)
# [1] = target: T2, human cytochrome P450 CYP2C8 (Homo sapiens, UniProt P10632); test: In vitro metabolism by CYP2C8; assay type: in vitro ADME
# T2 sequence (P10632 1-490): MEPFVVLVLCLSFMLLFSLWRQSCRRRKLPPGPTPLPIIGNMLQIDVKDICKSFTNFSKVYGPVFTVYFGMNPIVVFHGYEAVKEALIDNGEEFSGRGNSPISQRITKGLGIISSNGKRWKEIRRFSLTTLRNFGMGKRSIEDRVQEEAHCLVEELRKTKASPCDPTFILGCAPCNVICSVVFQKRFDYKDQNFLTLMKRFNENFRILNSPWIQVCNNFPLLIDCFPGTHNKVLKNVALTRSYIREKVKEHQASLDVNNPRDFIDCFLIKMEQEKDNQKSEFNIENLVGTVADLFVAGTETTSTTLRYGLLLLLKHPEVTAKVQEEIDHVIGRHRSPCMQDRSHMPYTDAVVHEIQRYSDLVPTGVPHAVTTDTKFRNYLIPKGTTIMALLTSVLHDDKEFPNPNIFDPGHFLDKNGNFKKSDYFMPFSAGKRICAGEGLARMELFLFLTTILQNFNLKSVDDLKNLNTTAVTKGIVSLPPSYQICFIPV
# [2] = target: human cytochrome P450 CYP3A5 (Homo sapiens, UniProt P20815); test: In vitro metabolism by CYP3A5; assay type: in vitro ADME
# Chain of human cytochrome P450 CYP3A5 (P20815 whole entry): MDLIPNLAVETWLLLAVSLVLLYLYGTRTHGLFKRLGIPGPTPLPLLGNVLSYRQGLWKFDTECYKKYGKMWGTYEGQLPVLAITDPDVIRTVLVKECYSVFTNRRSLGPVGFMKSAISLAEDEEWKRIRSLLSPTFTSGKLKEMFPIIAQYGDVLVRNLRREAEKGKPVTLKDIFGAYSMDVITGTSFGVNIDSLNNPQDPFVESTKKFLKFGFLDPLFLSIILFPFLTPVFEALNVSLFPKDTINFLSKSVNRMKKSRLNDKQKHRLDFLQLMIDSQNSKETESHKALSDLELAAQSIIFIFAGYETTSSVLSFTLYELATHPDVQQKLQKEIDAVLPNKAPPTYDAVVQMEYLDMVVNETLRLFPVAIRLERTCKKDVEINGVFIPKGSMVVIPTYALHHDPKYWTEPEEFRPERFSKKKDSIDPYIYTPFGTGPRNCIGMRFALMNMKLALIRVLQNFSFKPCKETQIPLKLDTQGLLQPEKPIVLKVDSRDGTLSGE
# CYP1A2 = CYP1A2 (Homo sapiens, UniProt P05177); test: CYP1A2 direct inhibition; assay type: in vitro ADME; conditions: highest concentration evaluated (10 μM)
# Chain of CYP1A2 (P05177 whole entry): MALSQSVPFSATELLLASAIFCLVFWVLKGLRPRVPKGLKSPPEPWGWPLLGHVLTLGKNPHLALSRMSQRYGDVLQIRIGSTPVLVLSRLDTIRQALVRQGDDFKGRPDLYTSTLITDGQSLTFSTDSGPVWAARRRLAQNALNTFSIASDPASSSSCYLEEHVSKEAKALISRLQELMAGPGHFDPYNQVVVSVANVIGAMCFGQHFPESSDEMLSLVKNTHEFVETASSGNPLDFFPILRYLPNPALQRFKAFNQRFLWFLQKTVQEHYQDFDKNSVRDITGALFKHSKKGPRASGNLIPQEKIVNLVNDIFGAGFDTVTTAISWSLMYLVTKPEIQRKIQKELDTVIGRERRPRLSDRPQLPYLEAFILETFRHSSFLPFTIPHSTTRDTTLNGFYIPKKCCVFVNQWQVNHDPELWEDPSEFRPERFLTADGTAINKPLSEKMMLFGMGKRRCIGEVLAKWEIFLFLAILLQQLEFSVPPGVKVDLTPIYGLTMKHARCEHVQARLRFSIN
# CYP2D6 = CYP2D6 (Homo sapiens, UniProt P10635); test: CYP2D6 direct inhibition; assay type: in vitro ADME; conditions: highest concentration evaluated (10 μM)
# Chain of CYP2D6 (P10635 whole entry): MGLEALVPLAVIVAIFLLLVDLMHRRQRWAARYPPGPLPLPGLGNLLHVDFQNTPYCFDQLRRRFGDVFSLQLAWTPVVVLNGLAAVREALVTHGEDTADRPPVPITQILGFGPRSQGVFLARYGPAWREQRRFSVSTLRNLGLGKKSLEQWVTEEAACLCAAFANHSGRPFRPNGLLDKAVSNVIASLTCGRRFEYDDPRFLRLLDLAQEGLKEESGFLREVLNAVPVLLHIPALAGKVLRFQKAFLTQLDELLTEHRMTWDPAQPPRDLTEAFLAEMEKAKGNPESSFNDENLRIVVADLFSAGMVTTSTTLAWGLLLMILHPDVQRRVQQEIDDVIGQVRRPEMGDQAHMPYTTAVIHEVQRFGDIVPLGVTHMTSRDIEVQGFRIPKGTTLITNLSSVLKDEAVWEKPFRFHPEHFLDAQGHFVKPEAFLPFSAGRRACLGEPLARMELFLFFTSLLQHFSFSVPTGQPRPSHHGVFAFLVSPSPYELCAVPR
# CYP2B6 = CYP2B6 induction in vitro (activity, mRNA); assay type: in vitro ADME
# CYP3A4 = CYP3A4 induction in vitro (activity, mRNA); assay type: in vitro ADME
smiles,measurement,setting,value
"O=C1CC[C@H](N2Cc3cc(N4CCN(CC5CCN(c6ccc([C@@H]7c8ccc(O)cc8OC[C@@H]7c7ccccc7)cc6F)CC5)CC4)ccc3C2=O)C(=O)N1 [compound (1-g), (S)-3-(5-(4-((1-(2-fluoro-4-((3S,4R)-7-hydroxy-3-phenylchroman-4-yl)phenyl)piperidin-4-yl)methyl)piperazin-1-yl)-1-oxoisoindolin-2-yl)piperidine-2,6-dione]",IC50,ERa,6.02 nM
same,Ki,ERa; read-out: inhibitor constant (Ki),0.53 nM
same,IC50,ERa; same value in ng/mL,5.91 nM
same,effect on MCF7 xenograft tumors,MCF7 xenograft tumors,achieved tumor regression
same,metabolism by CYP2C8,[1],weakly metabolized
same,metabolism by CYP3A5,[2],weakly metabolized
same,CYP1A2 direct inhibition,CYP1A2,did not directly inhibit
same,CYP2D6 direct inhibition,CYP2D6,did not directly inhibit
same,CYP2B6 induction (activity or mRNA expression),CYP2B6,did not significantly induce activity or mRNA expression
same,CYP3A4 induction (activity or mRNA expression),CYP3A4,did not significantly induce activity or mRNA expression
same,severely toxic dose in 10% of animals (STD10),"female, rat, in vivo, po, 28 day",270 mg/kg/day
same,off-target adverse toxicities,"rat, in vivo",no off-target adverse toxicities observed
same,key organ effects,"rats, 28-day GLP",considered on target pharmacological effects
